These results are taken from patent US20070082880A1 (priority 2005, published 2007).

The pIC50 is the negative decadic logarithm of the IC50, by convention in mol/L.

pIC50: −log10 of the molar value.

T1 sequence (Q04759 whole entry): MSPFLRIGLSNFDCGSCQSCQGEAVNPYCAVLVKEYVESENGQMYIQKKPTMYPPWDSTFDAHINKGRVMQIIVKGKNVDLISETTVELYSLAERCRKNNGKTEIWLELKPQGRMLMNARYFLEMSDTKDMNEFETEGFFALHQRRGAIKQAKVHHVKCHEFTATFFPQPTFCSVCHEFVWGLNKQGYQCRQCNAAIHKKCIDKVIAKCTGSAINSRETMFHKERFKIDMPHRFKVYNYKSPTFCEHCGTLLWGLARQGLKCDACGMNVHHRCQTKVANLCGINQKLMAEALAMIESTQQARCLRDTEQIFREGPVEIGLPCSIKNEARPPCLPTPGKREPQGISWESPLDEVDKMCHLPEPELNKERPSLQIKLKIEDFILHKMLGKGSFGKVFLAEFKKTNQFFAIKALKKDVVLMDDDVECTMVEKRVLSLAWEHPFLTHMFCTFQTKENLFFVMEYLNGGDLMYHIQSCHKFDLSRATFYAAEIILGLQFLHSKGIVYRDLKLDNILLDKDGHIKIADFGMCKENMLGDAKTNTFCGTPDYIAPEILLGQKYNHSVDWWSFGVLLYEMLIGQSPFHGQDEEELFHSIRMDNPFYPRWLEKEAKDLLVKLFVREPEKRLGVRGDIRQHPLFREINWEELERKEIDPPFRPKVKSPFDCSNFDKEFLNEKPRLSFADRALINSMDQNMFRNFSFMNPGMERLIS

The assay addresses T1, human PKCθ full length enzyme (Homo sapiens, UniProt Q04759).
T1 construct: human PKCθ full length enzyme (Panvera Catalog No. P2996); purchased Panvera P2996
As to the kind of experiment: PKCθ IMAP Assay. The format is biochemical. The settings on record: average value when one or more samples were tested; ATP 6 uM, PKCθ 1 nM. Here is the method:
The materials used include the following: human PKCθ full length enzyme (Panvera Catalog No. P2996); substrate peptide: 5FAM-[…]-OH (Molecular Devices, RP7032); ATP (Sigma Cat # A2383); DTT (Pierce, 20291); 5× kinase reaction buffer (Molecular Devices, R7209); 5× binding buffer A (Molecular Devices, R7282), 5× binding buffer B (Molecular Devices, R7209); IMAP Beads (Molecular Devices, R7284); and 384-well plates (Corning Costar, 3710).
The reaction buffer was prepared by diluting the 5× stock reaction buffer and adding DTT to obtain a concentration of 3.0 mM. The binding buffer was prepared by diluting the 5× binding buffer A. A master mix solution was prepared using a 90% dilution of the reaction buffer containing 2×ATP (12 uM) and 2× peptide ([…]). […] The final concentration of compound was 2× and 10% DMSO. DMSO was added to the rest of the master mix to increase the concentration to 10%. 10 ul of the master mix containing 10% DMSO was added to the rest of the wells on the plate except the 2nd column. 20 ul was transferred from the first column to the 2nd column. The compounds were serially diluted in 2:1 ratio starting from the 2nd column. A 2× (2 nM) PKCθ solution was made in the reaction buffer. 10 ul of the PKCθ solution was added to every well to achieve these final concentrations: PKCθ—1 nM; ATP—6 uM; peptide—100 nM; DMSO—5%. Samples were incubated for 25 minutes at room temperature. The binding reagent was prepared by diluting the beads in 1× binding buffer to 800:1. 50 ul of the binding reagent was added to every well and incubated for 20 minutes. FP was measured using Envision2100 (PerkinElmer Life Sciences). Wells with no ATPs and wells with no enzymes were used as controls.
As for “2-{3-[2-(dimethylamino)ethyl]phenyl}-4-(1H-indol-5-ylamino)thieno[2,3-b]pyridine-5-carbonitrile [Compound 112]”, the negative-log IC50 (pIC50) is 7.16.

Regarding `CN(C)c1ccc(-c2cc3c(Nc4ccc5[nH]ccc5c4)c(C#N)cnc3s2)cc1` [Compound 111, 2-[4-(dimethylamino)phenyl]-4-(1H-indol-5-ylamino)thieno[2,3-b]pyridine-5-carbonitrile], the pIC50 was 6.43.

`Cc1c(Nc2c(C#N)cnc3sc(-c4ccc(CN(C)C)cc4)cc23)ccc2[nH]ccc12` [Compound 113, 2-{4-[(dimethylamino)methyl]phenyl}-4-[(4-methyl-1H-indol-5-yl)amino]thieno[2,3-b]pyridine-5-carbonitrile]: the pIC50 was 7.85.

`CN(C)Cc1ccccc1-c1cc2c(Nc3ccc4[nH]ccc4c3)c(C#N)cnc2s1` [Compound 114, 2-{2-[(dimethylamino)methyl]phenyl}-4-(1H-indol-5-ylamino)thieno[2,3-b]pyridine-5-carbonitrile] gave a pIC50 of 6.24.

Regarding `Cc1c(Nc2c(C#N)cnc3sc(-c4ccc(CN5CCN(C)CC5)cc4)cc23)ccc2[nH]ccc12` [Compound 121, 4-[(4-methyl-1H-indol-5-yl)amino]-2-{4-[(4-methylpiperazin-1-yl)methyl]phenyl}thieno[2,3-b]pyridine-5-carbonitrile], the pIC50 is 7.42.

Turning to `CN(c1ccc2[nH]ccc2c1)c1c(C#N)cnc2sc(-c3ccccc3)cc12` [Compound 122, 4-[1H-indol-5-yl(methyl)amino]-2-phenylthieno[2,3-b]pyridine-5-carbonitrile], the pIC50 was less than 4.26.

For the compound `CCc1c(Nc2c(C#N)cnc3sc(-c4ccccc4)cc23)ccc2[nH]ccc12` [Compound 126, 4-[(4-ethyl-1H-indol-5-yl)amino]-2-phenylthieno[2,3-b]pyridine-5-carbonitrile], the pIC50 was 6.08.

`N#Cc1cnc2sc(-c3cccc(CN4CCOCC4)c3)cc2c1Nc1ccc2[nH]ccc2c1` [Compound 146, 4-(1H-indol-5-ylamino)-2-[3-(morpholin-4-ylmethyl)phenyl]thieno[2,3-b]pyridine-5-carbonitrile] showed a pIC50 of 6.26.

As for `CN(C)Cc1ccc(-c2cc3c(Nc4ccc5[nH]ccc5c4)c(C#N)cnc3s2)o1` [Compound 153, 2-{5-[(dimethylamino)methyl]-2-furyl}-4-(1H-indol-5-ylamino)thieno[2,3-b]pyridine-5-carbonitrile], the pIC50 is 6.77.

Turning to `CN(C)Cc1cc(-c2cc3c(Nc4ccc5[nH]ccc5c4)c(C#N)cnc3s2)co1` [Compound 154, 2-{5-[(dimethylamino)methyl]-3-furyl}-4-(1H-indol-5-ylamino)thieno[2,3-b]pyridine-5-carbonitrile], the negative logarithm of the IC50 (pIC50) was 6.74.

`COc1ccc(CN(C)C)cc1-c1cc2c(Nc3ccc4[nH]ccc4c3)c(C#N)cnc2s1` [Compound 155, 2-{5-[(dimethylamino)methyl]-2-methoxyphenyl}-4-(1H-indol-5-ylamino)thieno[2,3-b]pyridine-5-carbonitrile]: the negative logarithm of the IC50 (pIC50) was 7.42.

`Cc1c(Nc2c(C#N)cnc3sc(-c4ccccc4CN(C)C)cc23)ccc2[nH]ccc12` [Compound 156, 2-{2-[(dimethylamino)methyl]phenyl}-4-[(4-methyl-1H-indol-5-yl)amino]thieno[2,3-b]pyridine-5-carbonitrile]: the negative logarithm of the IC50 (pIC50) was 7.03.

On to `N#Cc1cnc2sc(-c3csc(CN4CC[C@H](O)C4)c3)cc2c1Nc1ccc2[nH]ccc2c1` [Compound 157, 2-(5-{[(3S)-3-hydroxypyrrolidin-1-yl]methyl}-3-thienyl)-4-(1H-indol-5-ylamino)thieno[2,3-b]pyridine-5-carbonitrile], for which the pIC50 is 7.36.

As to `N#Cc1cnc2sc(-c3csc(CN4CCC[C@H]4CO)c3)cc2c1Nc1ccc2[nH]ccc2c1` [Compound 158, 2-(5-{[(2S)-2-(hydroxymethyl)pyrrolidin-1-yl]methyl}-3-thienyl)-4-(1H-indol-5-ylamino)thieno[2,3-b]pyridine-5-carbonitrile], the negative logarithm of the IC50 (pIC50) is 7.24.

`N#Cc1cnc2sc(-c3cccc(CN4CCCC4)c3)cc2c1Nc1ccc2[nH]ccc2c1` [Compound 159, 4-(1H-indol-5-ylamino)-2-[3-(pyrrolidin-1-ylmethyl)phenyl]thieno[2,3-b]pyridine-5-carbonitrile] showed a negative-log IC50 (pIC50) of 6.62.

The compound `N#Cc1cnc2sc(-c3cccc(CN4CCCCC4)c3)cc2c1Nc1ccc2[nH]ccc2c1` [Compound 160, 4-(1H-indol-5-ylamino)-2-[3-(piperidin-1-ylmethyl)phenyl]thieno[2,3-b]pyridine-5-carbonitrile] gave a negative-log IC50 (pIC50) of 6.44.

For the compound `CCN(CC)Cc1cccc(-c2cc3c(Nc4ccc5[nH]ccc5c4)c(C#N)cnc3s2)c1` [Compound 161, 2-{3-[(diethylamino)methyl]phenyl}-4-(1H-indol-5-ylamino)thieno[2,3-b]pyridine-5-carbonitrile], the pIC50 was 6.46.

For the compound `COCCN(C)Cc1cccc(-c2cc3c(Nc4ccc5[nH]ccc5c4)c(C#N)cnc3s2)c1` [Compound 162, 4-(1H-indol-5-ylamino)-2-(3-{[(2-methoxyethyl)(methyl)amino]methyl}phenyl)thieno[2,3-b]pyridine-5-carbonitrile], the pIC50 was 6.57.

For the compound `CN(C)CCN1CCN(Cc2cccc(-c3cc4c(Nc5ccc6[nH]ccc6c5)c(C#N)cnc4s3)c2)CC1` [Compound 163, 2-[3-({4-[2-(dimethylamino)ethyl]piperazin-1-yl}methyl)phenyl]-4-(1H-indol-5-ylamino)thieno[2,3-b]pyridine-5-carbonitrile], the pIC50 is 6.89.

Regarding `CN(CCO)Cc1cccc(-c2cc3c(Nc4ccc5[nH]ccc5c4)c(C#N)cnc3s2)c1` [Compound 164, 2-(3-{[(2-hydroxyethyl)(methyl)amino]methyl}phenyl)-4-(1H-indol-5-ylamino)thieno[2,3-b]pyridine-5-carbonitrile], the pIC50 was 7.06.

As for `COCCNCc1cccc(-c2cc3c(Nc4ccc5[nH]ccc5c4)c(C#N)cnc3s2)c1` [Compound 165, 4-(1H-indol-5-ylamino)-2-(3-{[(2-methoxyethyl)amino]methyl}phenyl)thieno[2,3-b]pyridine-5-carbonitrile], the negative logarithm of the IC50 (pIC50) was 6.96.

On to `CN(C)CCNCc1cccc(-c2cc3c(Nc4ccc5[nH]ccc5c4)c(C#N)cnc3s2)c1` [Compound 166, 2-[3-({[2-(dimethylamino)ethyl]amino}methyl)phenyl]-4-(1H-indol-5-ylamino)thieno[2,3-b]pyridine-5-carbonitrile], for which the pIC50 was 6.80.

The compound `N#Cc1cnc2sc(-c3cccc(CNCCCO)c3)cc2c1Nc1ccc2[nH]ccc2c1` [Compound 167, 2-(3-{[(3-hydroxypropyl)amino]methyl}phenyl)-4-(1H-indol-5-ylamino)thieno[2,3-b]pyridine-5-carbonitrile] had a pIC50 of 6.96.

On to `N#Cc1cnc2sc(-c3cccc(CN4CCN(CC(=O)N5CCCC5)CC4)c3)cc2c1Nc1ccc2[nH]ccc2c1` [Compound 168, 4-(1H-indol-5-ylamino)-2-(3-{[4-(2-oxo-2-pyrrolidin-1-ylethyl)piperazin-1-yl]methyl}phenyl)thieno[2,3-b]pyridine-5-carbonitrile], for which the negative-log IC50 (pIC50) was 6.28.
